Source: patent US10155038B2, “Cells prepared by transient transfection and methods of use thereof” (Yale University, priority 2007, dated 2018)

Legend:
EML cells = assay: GFP transfection of EML cells by nucleofection, FACS; format: cell-based, mouse; settings: FIG. 2B; for GFP expression when ATP in the E-PAP reaction was replaced by ATP analog: without tail extension
Protocol: Electroporation was performed using an Amaxa NUCLEOFECTOR™-II (Amaxa Biosystems, Cologne, Germany) in accordance with manufacturer recommendations. Jurkat and B cell lines were transfected using NUCLEOFECTOR™-II solution V and the set of recommended regimes for electroporation. EML cells were transfected using solutions V, T and R and different regimes of electroporation. T lymphocytes were transfected using T cell NUCLEOFECTOR™-II solution and different regimes of electroporation. Alternative methods of nucleic acids delivery were also used: cationic liposome mediated transfection was performed using LIPOFECTIN® or LIPOFECTAMIN® (Invitrogen). Electroporation was also performed with the ECM 830 (BTX) (Harvard Instruments, Boston, Mass.) or the Gene Pulser II (BioRad, Denver, Colo.), Multiporator (Eppendorf, Hamburg Germany). All procedures were performed as directed by the manufacturers. pmaxGFP plasmid DNA (Amaxa Biosystems) was used as the DNA control. The efficiency of transfection (ET) was determined 18h after transfection by fluorescence activated cell sorting (FACS). In some experiments transfectants were further analyzed each 24h until GFP could not longer be detected. Cell viability was determined by trypan blue dye exclusion.
Flow cytometry was performed using the fluorescent activated cell sorting (FACS®) assay. Flow cytometry was performed on cell subpopulations was performed at the Yale Cancer Center Flow Cytometry Shared Resource, using a FACS® Calibur flow cytometer (Becton-Dickinson, San Jose, Calif.) equipped with 488 nm laser and the standard filter setup. Fluorescence signals were collected on a logarithmic scale. A minimum of ten thousand cells were interrogated for each sample. Analysis of data was performed using FlowJo software (Tree Star, Inc., San Carlos, Calif.). The expression efficiency was calculated as the difference between the geometric mean of fluorescence of the transfectants and control (mock transfected) cells. […]

[1] = system: mantle cell lymphoma (MCL) cell lines; assay: Viability of MCL cell lines, CELLTITER-GLO assay; format: cell-based
Text: FIG. 13 is a line graph showing viability (percent) of various mantle cell lymphoma (MCL) cancer cell lines (SP-53, SP-49, Granta, JEKO, and TVM) following treatment with various concentrations (M) of the BH3 mimetic ABT-737.
FIGS. 14A-14D are plots showing viability (Relative Light Units) following a CELLTITER-GLO® assay of various mantle cell lymphoma (MCL) cancer cell lines: JVM-2 (FIG. 14A), Granta-519 (FIG. 14B), JEKO-1 (FIG. 14C), and SP-53 (FIG. 14D) following treatment with various concentrations (M) of the BH3 mimetic BIM SAHB (-▪-), or a BIM SAHB R153D variant control (-●-).
A panel of mantle cell lymphoma (MCL) cell lines were exposed to BIM SAHBA, BIM SAHBA(R153D), or vehicle alone for 24 hours in OptiMEM medium followed by viability testing using the CELLTITER-GLO® (Promega) assay.

GFP mRNA = assay: siRNA inhibition of GFP mRNA expression in Jurkat cells; format: cell-based; settings: Jurkat cells with EGFP mRNA; the day after transfection
Text: Jurkat T cells were electroporated with different amount of FITC labeled siRNA. The condition and the kinetics of siRNA transfection were identical to mRNA transfection.

metastatic melanoma = settings: cited from earlier work
caspase 3/7 = assay: Caspase 3/7 activation in MCL cell lines; format: cell-based; settings: JVM-2, Granta-519, JEKO-1, SP-53
Text: FIGS. 15A-15D are plots showing caspase 3/7 activation (Relative Light Units) in various mantle cell lymphoma (MCL) cancer cell lines: JVM-2 (FIG. 15A), Granta-519 (FIG. 15B), JEKO-1 (FIG. 15C), and SP-53 (FIG. 15D) following treatment with various concentrations (μM) of the BH3 mimetic SAHB (right hand bar in each pair), or a SAHB R153D variant control (left hand bar in each pair).

Nc1ncnc2c1nnn2[C@@H]1O[C@H](CO)[C@@H](O)[C@H]1O [8-azaadenosine]
GFP expression when ATP in the E-PAP reaction was replaced by ATP analog (EML cells): increased

CN(C)CC[C@H](CSc1ccccc1)Nc1ccc(S(=O)(=O)NC(=O)c2ccc(N3CCN(Cc4ccccc4-c4ccc(Cl)cc4)CC3)cc2)cc1[N+](=O)[O-] [ABT-737]
effect on viability ([1]; FIG. 13, SP-53, SP-49, Granta, JEKO, JVM): reduced viability in a subset of the MCL cell lines

CO[C@H]1[C@@H](O)[C@H](n2c[n+](C)c3c(=O)[nH]c(N)nc32)O[C@@H]1COP(=O)(O)OP(=O)(O)OP(=O)(O)OC[C@H]1O[C@@H](n2cnc3c(=O)[nH]c(N)nc32)[C@H](O)[C@@H]1O [ARCA, 3′-O-Methyl-m7G[5′]ppp[5′]G]
increase of GFP expression compared to the standard capping procedure (EML cells; GFP mRNA capped with ARCA): two-fold increase

Nc1ncnc2c1ncn2[C@@H]1O[C@H](CO)C[C@H]1O [cordycepin]
GFP expression when ATP in the E-PAP reaction was replaced by ATP analog (EML cells): increased

anti-GFP siRNA: anti-GFP siRNA (GCAAGCUGACCCUGAAGUUCAU) (chemistry not given here)
inhibition of GFP mRNA expression (GFP mRNA): 80%

nivolumab: anti-PD-1 antibody
overall response rate (metastatic melanoma): 30-40%

synthetic peptide modeled on the BIM BH3 death domain with all-hydrocarbon crosslink; IWIAQELRXIGDXFNAYYARR (SEQ ID NO:1) [BIM SAHBA]
caspase 3/7 activation (caspase 3/7): correlated with caspase 3/7 activation | EC50s, impaired viability ([1]; 24 hours, OptiMEM medium, panel of MCL cell lines): low micromolar range
